Test results taken from patent publication US8513433B2, “Small molecule inhibitors of PARP activity” (Angion Biomedica Corp., priority 2009, dated 2013).

What was measured:
human PARP-1 = biological target: T1, human PARP-1 (Homo sapiens, UniProt P09874); assay: Poly (ADP-Ribose) Polymerase-1 (PARP-1) in vitro enzyme assay (Universal Colorimetric PARP Assay Kit); assay type: biochemical; details: letter codes; read-out: extent of inhibition of PARP activity (IC50, micromolar)
T1 construct: purchased Trevigen Inc., Gaithersburg, Md
T1 sequence (P09874 whole entry): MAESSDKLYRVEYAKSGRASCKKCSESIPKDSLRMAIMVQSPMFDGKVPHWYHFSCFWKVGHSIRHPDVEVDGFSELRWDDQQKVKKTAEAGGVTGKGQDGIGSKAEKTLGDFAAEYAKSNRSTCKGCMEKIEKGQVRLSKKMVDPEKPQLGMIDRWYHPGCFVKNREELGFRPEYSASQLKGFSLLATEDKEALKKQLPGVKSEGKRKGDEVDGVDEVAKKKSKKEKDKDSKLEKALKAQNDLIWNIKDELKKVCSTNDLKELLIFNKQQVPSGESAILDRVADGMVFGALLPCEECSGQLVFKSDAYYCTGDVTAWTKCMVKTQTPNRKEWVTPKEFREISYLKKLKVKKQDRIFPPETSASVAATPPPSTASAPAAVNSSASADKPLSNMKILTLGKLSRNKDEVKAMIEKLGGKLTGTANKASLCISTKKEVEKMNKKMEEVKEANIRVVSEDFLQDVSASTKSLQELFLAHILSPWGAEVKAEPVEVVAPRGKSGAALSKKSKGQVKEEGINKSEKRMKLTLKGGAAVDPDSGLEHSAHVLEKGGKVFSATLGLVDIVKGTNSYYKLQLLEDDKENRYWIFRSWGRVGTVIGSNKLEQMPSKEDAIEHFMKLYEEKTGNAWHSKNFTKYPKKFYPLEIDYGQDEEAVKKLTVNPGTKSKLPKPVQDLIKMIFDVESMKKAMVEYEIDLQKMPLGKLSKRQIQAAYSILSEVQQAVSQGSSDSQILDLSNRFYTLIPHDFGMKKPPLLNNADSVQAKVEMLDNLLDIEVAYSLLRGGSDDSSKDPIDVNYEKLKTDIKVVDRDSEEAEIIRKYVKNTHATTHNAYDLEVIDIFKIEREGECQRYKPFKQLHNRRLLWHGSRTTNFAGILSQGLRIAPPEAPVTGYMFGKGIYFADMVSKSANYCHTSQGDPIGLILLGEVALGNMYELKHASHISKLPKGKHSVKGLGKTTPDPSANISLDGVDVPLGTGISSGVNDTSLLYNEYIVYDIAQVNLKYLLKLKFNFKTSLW
From the text: Poly (ADP-Ribose) Polymerase-1 (PARP-1) In Vitro Enzyme Assay: Compounds can be screened for inhibitory activity against human PARP-1 in vitro using the Universal Colorimetric PARP Assay Kit (Trevigen Inc., Gaithersburg, Md.) as directed by the supplier. Compounds can be assayed in duplicate in 0.5% DMSO final concentration, negative control is no enzyme, while positive control is DMSO vehicle alone. IC50 determinations can be made using Microsoft Excel. For all cell assays, compounds can be added to cells in 5% DMSO/PBS for a final concentration of 0.5% DMSO.

mouse = mouse arthritis; inflammatory cell infiltration, hyperplasia of the synovium, tissue necrosis; cited from earlier work
rat = details: 45 minutes ischemia, up to six hours reperfusion; drug one minute before reperfusion; cited from earlier work
[1] = tested on: vascular smooth muscle cells in tumors; details: cited from earlier work
PARP-1 = details: agent alone; cited from earlier work
Mice = details: eleven minutes aortic ischemia, 48 hours reperfusion, cited from earlier work
rats = details: hemorrhagic shock and resuscitation; cited from earlier work

Row | SMILES | IC50 (human PARP-1) [µM] | further results
1 | NC(=O)c1cccc2[nH]c(C3Cc4ccccc4CN3C(=O)OCc3ccccc3)nc12 (stereo not shown) [Benzyl 3-(4-carbamoyl-1H-benzo[d]imidazol-2-yl)-3,4-dihydroisoquinoline-2-(1H)-carboxylate] | 0.5 to 2 | 
2 | NC(=O)c1cccc2[nH]c(C3Cc4ccccc4N3)nc12 (stereo not shown) [2-(Indolin-2yl)-1H-benzo[d]imidazole-4-carboxamide] | < 0.5 | 
3 | NC(=O)c1cccc2[nH]c(C3c4ccccc4CCN3C(=O)OCc3ccccc3)nc12 (stereo not shown) [Benzyl 1-(4-carbamoyl-1H-benzo[d]imidazol-2-yl)-3,4-dihydroisoquinoline-2(1H)-carboxylate] | > 2 | 
4 | NC(=O)c1cccc2[nH]c(C3NCc4ccccc43)nc12 (stereo not shown) [2-(Isoindolin-1-yl)-1H-benzo[d]imidazole-4-carboxamide] | < 0.5 | 
5 | NC(=O)c1cccc2[nH]c(C3Cc4ccccc4N3C(=O)OCc3ccccc3)nc12 (stereo not shown) [Benzyl 2-(4-carbamoyl-1H-benzo[d]imidazol-2-yl)indoline-1-carboxylate] | > 2 | 
6 | Nc1ccc2oc(=O)ccc2c1I [5-iodo-6-amino-1,2-benzopyrone] |  | severity of the disease as assessed by histological parameters (mouse): reduced the severity of the disease
7 | Oc1cccc2c(O)nccc12 [1,5-dihroxyisoquinoline] |  | kidney function (plasma urea, plasma creatinine, glomerular filtration rate) (rat): improved kidney function
8 | NC(=O)c1cccc2[nH]c(C3Cc4ccc(N)cc4CN3)nc12 (stereo not shown) [2-(7-Amino-1,2,3,4-tetrahydroisoquinolin-3-yl)-1H-benzo[d]imidazole-4-carboxamide] | < 0.5 | 
9 | NC(=O)c1cccc2[nH]c(C3Cc4ccccc4CN3)nc12 (stereo not shown) [2-(1,2,3,4-Tetrahydroisoquinolin-3-yl)-1H-benzo[d]imidazole-4-carboxamide] | < 0.5 | 
10 | NC(=O)c1cccnc1 [nicotinamide] |  | contraction of vascular smooth muscle cells in tumors [1]: inhibit contraction
11 | CC(C)(C)OC(=O)Nc1ccc2c(c1)CN(C(=O)OC(C)(C)C)C(c1nc3c(C(N)=O)cccc3[nH]1)C2 (stereo not shown) [tert-Butyl 7-((tert-butoxycarbonyl)amino)-3-(4-carbamoyl-1H-benzo[d]imidazol-2-yl)-3,4-dihydroisoquinoline-2(1H)-carboxylate] | > 2 | 
12 | CC(C)(C)OC(=O)N1Cc2cc(N)ccc2CC1c1nc2c(C(N)=O)cccc2[nH]1 (stereo not shown) [tert-Butyl 7-amino-3-(4-carbamoyl-1H-benzo[d]imidazol-2-yl)-3,4-dihydroisoquinoline-2(1H)-carboxylate] | > 2 | 
13 | COc1cc([C@@H]2c3cc4c(cc3[C@@H](O[C@@H]3O[C@@H]5CO[C@@H](C)O[C@H]5[C@H](O)[C@H]3O)[C@H]3COC(=O)[C@H]23)OCO4)cc(OC)c1O [etoposide] |  | activation of PARP-1 (PARP-1): failed to induce PARP-1
14 | NC(=O)c1cccc(N)c1 [3-aminobenzamide] |  | kidney function (plasma urea, plasma creatinine, glomerular filtration rate) (rat): improved kidney function
15 | NC(=O)c1cccc2[nH]c(C3NCCc4ccccc43)nc12 (stereo not shown) [2-(1,2,3,4-Tetrahydroisoquinolin-1-yl)-1H-benzo[d]imidazole-4-carboxamide] | < 0.5 | 
16 | CC(C)(C)OC(=O)Nc1ccc2c(c1)CNC(c1nc3c(C(N)=O)cccc3[nH]1)C2 (stereo not shown) [tert-Butyl (3-(4-carbamoyl-1H-benzo[d]imidazol-2-yl)-1,2,3,4-tetrahydroisoquinolin-7-yl)carbamates] | > 2 | 
17 | NC(=O)c1cccc2[nH]c(C3c4ccccc4CN3C(=O)OCc3ccccc3)nc12 (stereo not shown) [Benzyl 1-(4-carbamoyl-1H-benzo[d]imidazol-2-yl)isoindoline-2-carboxylate] | > 2 | 
18 | CC1(c2nc3c(C(N)=O)cccc3[nH]2)Cc2ccccc2CN1C(=O)OCc1ccccc1 (stereo not shown) [Benzyl 3-(4-carbamoyl-1H-benzo[d]imidazol-2-yl)-3-methyl-3,4-dihydroisoquinoline-2(1H)-carboxylate] | > 2 | 
19 | CN(C)CC(=O)Nc1ccc2[nH]c(=O)c3ccccc3c2c1 [PJ34] |  | fibrinolysis stimulated by the ischemia-reperfusion (Mice): no apparent affect; steady state levels of a marker for neutrophil infiltration (Mice): decrease steady state levels; renal mitochondrial activity (Mice; treated 1 hour before and immediately after ischemia): preserve renal mitochondrial activity
20 | CC[C@@]1(O)C(=O)OCc2c1cc1n(c2=O)Cc2cc3ccccc3nc2-1 [camptothecin] |  | activation of PARP-1 (PARP-1): four-fold activation
21 | CC(C)(C)OC(=O)N1c2ccccc2CCC1c1nc2c(C(N)=O)cccc2[nH]1 (stereo not shown) [tert-Butyl 2-(4-carbamoyl-1H-benzo[d]imidazol-2-yl)-3,4-dihydroquinoline-1(2H)-carboxylate] | > 2 | 
22 | NC(=O)c1cccc2[nH]c(C3CCc4ccccc4N3)nc12 (stereo not shown) [2-(1,2,3,4-Tetrahydroquinolin-2-yl)-1H-benzo[d]imidazole-4-carboxamide] | < 0.5 | 
23 | Nc1cccc2cnccc12 [5-aminoisoquinoline] |  | leukocyte-endothelial interaction (rats): decreased leukocyte-endothelial interaction; liver function (rats): improved liver function; liver injury (rats): decreased liver injury
24 | CC1(c2nc3c(C(N)=O)cccc3[nH]2)Cc2ccccc2CN1 (stereo not shown) [2-(3-Methyl-1,2,3,4-tetrahydroisoquinolin-3-yl)-1H-benzo[d]imidazole-4-carboxamide] | < 0.5 | 
